Data set [1] relates to primary human peripheral blood mononuclear cells (PBMCs). Put plainly: LPS stimulated human PBMC cytokine release. Conditions: LPS 1 ng/ml, 48 hours; C-2250 500, 1000, 1500 μM; five donors. It is filed as cell-based. Here is the method: The ability of C-2250 to suppress in vitro cytokine release from primary human peripheral blood mononuclear cells (PBMCs) was assessed. Lipopolysaccharide (LPS) inhibition by C-2250 was determined. PBMCs from five individual, normal healthy human volunteers were incubated with C-2250, followed by LPS stimulation for 48 hours. Detection of three different cytokines was performed using an antibody capture bead-based kit and flow cytometric analysis.
Cryopreserved PBMCs from five healthy human donors (IQ Biosciences, Catalog #I QB-PBMC103) were thawed and cultured in RPMI 1640 medium (Gibco RPMI-1640 Medium (ATCC, Catalog #30-2001) supplemented with 10% FCS, 2 mM L-glutamine, 100 IU/mL penicillin, 100 μg/mL streptomycin, 1 mM sodium pyruvate (all from ThermoFisher) with viability >85% as determined automated cell counter (Countess II FL Automated Cell Counter; ThermoFisher; Catalog #AMQAF1000) prior to experiments. For C-2250, a 73 mM stock was prepared in sterile Lactated Ringer's Solution less than two hours prior to the start of the assay by adding 100 mg C-2250 into 10 mL Lactated Ringer's Solution. Prior to use in the assay, the pH of the solution was adjusted to 7.3. 100 μl of PBMCs at 1.0×10^7 cells/mL were washed and re-suspended in tissue culture medium containing a fixed concentration (1 ng/ml) of LPS from E. coli, serotype 0111:B4. LPS stimulation was performed for 48 hours at 37° C., 5% CO2 prior to harvesting tissue culture supernatant for cytokine analysis. C-2250 was used at 500, 1000, and 1500 μM concentrations.
Each symbol represents the mean value of triplicate analysis of a single donor. Each bar per treatment group represents the mean value of all donors where the triplicate value of each donor is averaged.

For data set [2], the system named is Raji, a human CD19 expressing target B cell line. Put plainly: CD19 CAR-T co-culture assay with Raji cells: CAR-T mediated target cell lysis. It is filed as cell-based. Conditions: E:T ratios 5:1, 10:1, 20:1. Here is the method:
(§1) Human CD19 specific CAR-T effector cells from a donor were co-cultured with Raji, a human CD19 expressing target B cell line at different effector to target cell ratios of 5:1, 10:1, and 20:1 in the presence of C-2250. Co-culture was performed for 6 hours or 24 hours at 37° C., 5% CO2 prior to harvesting cells for CAR-T mediated target cell lysis or tissue culture supernatant for cytokine analysis. C-2250 was used at 500, 1000, and 1500 μM concentrations and was allowed to pre-incubate with CAR-T cells prior to addition of tumor target cells.
FIGS. 2A-2C show the results of CD19 CAR-T co-culture assay with CD-19 tumor cells (Raji) at 6 hours, CAR-T mediated tumor target cell in the present of increasing concentrations of C-2250 are shown (E:T ratios of 5:1, 10:1, and 20:1 are shown in FIGS. 2A, 2B, and 2C, respectively). FIGS. 3A-3C show the results of CD19 CAR-T co-culture assay with CD-19 tumor cells (Raji) at 24 hours, CAR-T mediated tumor target cell in the present of increasing concentrations of C-2250 are shown (E:T ratios of 5:1, 10:1, and 20:1 are shown in FIGS. 3A, 3B, and 3C, respectively).

Data set [3] concerns Human CD19 specific CAR-T effector cells. The data set is described as follows: CD19 CAR-T co-culture assay with Raji cells: cytokine release. It is filed as cell-based. On the procedure:
as §1

For data set [4], the system named is Ramos cells (a human CD19 expressing B cell line). Put plainly: PBMC/Ramos co-culture with BLINCYTO: target cell cytotoxicity. Conditions: 24 hours. It is filed as cell-based. On the procedure:
(§2) Inhibition of cytokine release by C-2250 in the presence of a bispecific CD19 T cell engager was assessed. Human PBMCs from ten donors were co-cultured with Ramos cells (a human CD19 expressing B cell line) in the presence of blinatumomab (BLINCYTO®), a T cell bispecific therapeutic, and C-2250 was added.
(§3) Co-culture was performed for 24 hours at 37° C., 5% CO2, prior to harvesting cells or tissue culture supernatant for analysis. C-2250 was used at 500, 1000, and 1500 μM concentrations and was allowed to pre-incubate with T cells prior to addition of BLINCYTO®.

The test system of the next data set is Human PBMCs. Put plainly: PBMC/Ramos co-culture with BLINCYTO: cytokine release. It is filed as cell-based. Here is the method:
as §2, §3

A short description of data set [5]: Solubility in water / isotonicity. It is filed as physicochemical.
For data set [6], the system named is CAR T cell-induced severe or life-threatening CRS. To be noted: two cohorts; adults and pediatric patients 2 years and older; cited from earlier work.
The mark [7] stands for this setting: E:T ratios 5:1, 10:1, 20:1, C-2250 500, 1000, 1500 μM.
[8] abbreviates: C-2250 500, 1000, 1500 μM with BLINCYTO 100 ng/ml, 24 hours.

`O=S1(=O)CCOCN1` [C-2250, Tetrahydro1,4,5-oxathiazin-4-dioxide]: in data set [1], the “inhibition of IL-1β cytokine release” value is given as “dose-dependent inhibition”, the “inhibition of IL-6 cytokine release” value is on record as “dose-dependent inhibition” and the “inhibition of TNF-α cytokine release” value is “dose-dependent inhibition”. Also, in data set [2] (6 hours), the “CD19 CAR-T mediated CD19+ tumor target cell cytotoxicity” value is “does not abrograte”. The “CD19 CAR-T mediated CD19+ tumor target cell cytotoxicity” value in data set [2] (24 hours) is given as “does not abrograte”. The “cytokine release (including IL-1β, IL-6, TNF-α, and IFN-γ cytokines)” value in data set [3] (CAR-T/Raji co-culture, summary statement) is on record as “shuts down”. For the same compound, in data set [3] (setting [7]), the “CD19 CAR-T cell mediated IFN-γ cytokine release” value is “reduces”, the “CD19 CAR-T cell mediated IL-2 cytokine release” value is on record as “reduces” and the “CD19 CAR-T cell mediated TNF-α cytokine release” value is on record as “reduces”. Also, the “BLINCYTO mediated CD19+ tumor target cell cytotoxicity” value in data set [4] (C-2250 500, 1000, 1500 μM with BLINCYTO 100 ng/ml) is on record as “did not reduce”. The “tumor target cytotoxicity in the absence of BLINCYTO” value in data set [4] (no BLINCYTO, PBMC/Ramos co-culture) is “increased”. For the same compound, in the data set with Human PBMCs (setting [8]), the “BLINCYTO T-cell mediated IFN-γ cytokine release” value is “reduced”, the “BLINCYTO T-cell mediated IL-1β cytokine release” value was “reduced”, the “BLINCYTO T-cell mediated IL-2 cytokine release” value was “reduced” and the “BLINCYTO T-cell mediated IL-6 cytokine release” value is given as “reduced”. Moreover, the “BLINCYTO T-cell mediated TNF-α cytokine release” value in the data set with Human PBMCs (setting [8]) is on record as “reduced”. In addition, in the data set on Human PBMCs (with BLINCYTO, summary statement), the “release of all of the tested cytokines” value is “reduced”. For the same compound, the “concentration of isotonic solution” value in data set [5] came to 3.2%. Also, in data set [5] (no PVP necessary), the solubility in water result is “very soluble”.
With “tocilizumab: monoclonal antibody blocking the interleukin-6 (IL-6) receptor”, in data set [6], the response rates was 53%-69%.

The values are drawn from patent US12514847B2, “Oxathiazin_dioxide for treating, preventing, inhibiting or reducing cytokine release” (Geistlich Pharma AG, priority 2019, dated 2026).
